Measured values as given in paper PMC12668310, “High‐Throughput Synthesis and Screening of a Cyanimide Library Identifies Selective Inhibitors of ISG15‐Specific Protease mUSP18” (Angewandte Chemie (International Ed. in English), 2025).
Read-outs that look alike come from different tables or passages of the source.

Target: T1, mUSP18 (Mus musculus, UniProt Q9WTV6)
T1 construct: (46-368); His-tag (N); made in house
T1 sequence (Q9WTV6 46-368): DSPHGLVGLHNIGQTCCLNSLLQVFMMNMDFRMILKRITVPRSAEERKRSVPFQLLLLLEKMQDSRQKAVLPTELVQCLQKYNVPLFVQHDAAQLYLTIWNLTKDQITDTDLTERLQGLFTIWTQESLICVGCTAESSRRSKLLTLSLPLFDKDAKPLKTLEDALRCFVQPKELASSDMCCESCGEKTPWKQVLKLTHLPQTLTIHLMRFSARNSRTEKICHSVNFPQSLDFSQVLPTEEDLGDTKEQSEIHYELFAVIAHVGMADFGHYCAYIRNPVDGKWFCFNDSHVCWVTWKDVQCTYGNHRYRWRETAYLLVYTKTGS
Assay: High-throughput screening, ISG15ct-RhoMP, single dose 1.25 µM
Assay type: biochemical, murine

[1] = mUSP18 %inhibition, carboxylic acid (CA) building block alone, read-out: %inh CA only
[2] = mUSP18 %inhibition, carboxylic acid (CA) with coupling reagents DIC/HOBT, read-out: %inh CA + DIC/HOBT

| Compound | inhibition at 1.25 µM [1] [%] | inhibition at 1.25 µM [2] [%] | inhibition of mUSP18 by individual CA's and coupling reagents (screened with and without DIC/HOBt) | %inh CA only (mUSP18 %inhibition, carboxylic acid (CA) building block alone) [%] | %inh CA + DIC/HOBT (mUSP18 %inhibition, carboxylic acid (CA) with coupling reagents DIC/HOBT) [%] |
| --- | --- | --- | --- | --- | --- |
| Cc1ccc([1C@@H]2C[1C@H]2C(=O)O)s1 [CA272] | 5.08 | 8.26 |  |  |  |
| CN1CCN(C(=O)[1C@@H]2[1C@@H](C(=O)O)C2(C)C)CC1 [CA273] | 5.18 | 5.09 |  |  |  |
| Cc1csc(N2CCC(C(=O)O)CC2)n1 [CA274] | 5.76 | 5.39 |  |  |  |
| O=C(O)c1cc(Cn2cc(Cl)cn2)cs1 [CA275] | 8.26 | 6.3 |  |  |  |
| Cc1nc(COc2ccc(C(=O)O)cc2)no1 [CA276] | 4.94 | 6.3 |  |  |  |
| CN(Cc1ccnn1C)C(=O)C1CCCCC1C(=O)O (stereo not drawn) [CA277] | 5.25 | 7.6 |  |  |  |
| COc1ccc(C(=O)O)cc1S(=O)(=O)NCc1ccccn1 [CA278] | 3.79 | 6.92 |  |  |  |
| O=C(O)c1ccc(CN2CCCCCC2)s1 [CA279] | 4.45 | 8.32 |  |  |  |
| Cc1nc(-c2cc(C)n(CCC(=O)O)c2C)cs1 [CA280] | 11.4 | 14.1 |  |  |  |
| O=C(O)c1ccc(Cl)c(N2CCCS2(=O)=O)c1 [CA281] | 4.15 | 14.1 |  |  |  |
| Cc1noc(C)c1S(=O)(=O)N1CCC(C(=O)O)CC1 [CA282] | 10.4 | -1.35 |  |  |  |
| NS(=O)(=O)c1ccc(CCNS(=O)(=O)c2cccc(C(=O)O)c2)cc1 [CA283] | 7.79 | -9.16 |  |  |  |
| O=C(O)c1ccc(-c2cccs2)[nH]c1=O [CA284] | 9.12 | -3.37 |  |  |  |
| O=C(O)c1cc(N2CCOCC2)ccn1 [CA285] | 2.02 | -5.92 |  |  |  |
| O=C(O)Cc1csc(-c2nnc[nH]2)n1 [CA286] | 1.07 | -3.16 |  |  |  |
| O=C(O)c1ccc(-n2cccn2)cc1 [CA287] | 1.15 | -3.85 |  |  |  |
| Cc1ccccc1COc1cccc(CC(=O)O)c1 [CA288] | 3.53 | -1.94 |  |  |  |
| O=C(O)c1ccc(S(=O)(=O)Nc2cccc(Cl)c2F)o1 [CA289] | 1.57 | -1.23 |  |  |  |
| O=C(O)C1CCCN1C(=O)c1ccncc1 (stereo not drawn) [CA290] | -0.53 | -3.12 |  |  |  |
| Cc1ccc(S(=O)(=O)N[C@@H](Cc2ccccc2)C(=O)O)cc1 [CA291] | 3.32 | -0.72 |  |  |  |
| O=C(O)c1csc(-c2ccc(Br)s2)n1 [CA292] | 6.43 | 1.42 |  |  |  |
| O=C(O)c1cc(C2CC2)n[nH]1 [CA293] | 0.33 | 14.3 |  |  |  |
| O=C(O)c1cc(-c2ccncc2)on1 [CA294] | -3.88 | -0.96 |  |  |  |
| O=C(O)c1ccc(N2CCCC2)c(F)c1 [CA295] | -4.32 | 40.8 |  |  |  |
| O=C(O)Cc1ccc(OCCOc2ccccc2)cc1 [CA296] | -2.15 | 1.46 |  |  |  |
| Cc1cc(C(=O)O)c(C)n1-c1cccnc1 [CA297] | -2.57 | -1.91 |  |  |  |
| O=C(O)c1csc(-c2ccncc2)n1 [CA298] | -1.96 | -1.91 |  |  |  |

| Compound | inhibition at 1.25 µM [1] [%] | inhibition at 1.25 µM [2] [%] | inhibition of mUSP18 by individual CA's and coupling reagents (screened with and without DIC/HOBt) | %inh CA only (mUSP18 %inhibition, carboxylic acid (CA) building block alone) [%] | %inh CA + DIC/HOBT (mUSP18 %inhibition, carboxylic acid (CA) with coupling reagents DIC/HOBT) [%] |
| --- | --- | --- | --- | --- | --- |
| O=C(O)C1CN(C(=O)OCc2ccccc2)CCO1 (stereo not drawn) [CA300] | -2.04 | 0.0181 |  |  |  |
| O=C(O)Cc1cnn(-c2ccccc2)n1 [CA301] | -3.64 | 0.63 |  |  |  |
| O=C(O)c1cccn1-c1c(Cl)cccc1Cl [CA302] | 0.53 | 98.1 | could inhibit mUSP18 |  |  |
| O=C(O)c1cnn(-c2ccc(Br)cc2)c1 [CA303] | -3.17 | 14.7 |  |  |  |
| Cn1cc(-c2ccc(C(=O)O)o2)cn1 [CA304] | -4.51 | 6.42 |  |  |  |
| O=C(O)c1ccc(F)c(S(=O)(=O)N2CCC2)c1 [CA305] | -6.19 | 9.63 |  |  |  |
| CN1C(=O)C[C@@H](C(=O)O)[C@@H]1c1cccnc1 [CA306] |  |  |  | 15.74 | -6.80 |
| Cc1nc(COc2ccccc2C(=O)O)no1 [CA307] | 9.87 | -3.65 |  |  |  |
| Cc1onc(-c2ccncc2)c1C(=O)O [CA308] | 7.23 | -3.66 |  |  |  |
| O=C(O)c1cccc(OCCOc2ccccc2Cl)n1 [CA309] | 8.2 | -0.34 |  |  |  |
| O=C(O)CC1(n2cnnn2)CCOCC1 [CA310] | 3.18 | -2.42 |  |  |  |
| O=C(O)c1sc(N2CCCC2)nc1Cl [CA311] | 3.86 | -3.06 |  |  |  |
| COc1ccc(CN2CCC2C(=O)O)cc1 (stereo not drawn) [CA312] | 3.67 | -3.27 |  |  |  |
| COCC1CCN(c2ccc(C(=O)O)cc2)C1 (stereo not drawn) [CA313] | 2.9 | 43.3 |  |  |  |
| Cc1nn(-c2cccnc2)nc1C(=O)O [CA314] | 5.77 | -5.31 |  |  |  |
| Cc1nn(-c2ccccn2)c(C)c1CC(=O)O [CA315] | 3.49 | -2.69 |  |  |  |
| O=C(O)c1ccnn1C1CCC1 [CA316] | 3.75 | -3.62 |  |  |  |
| O=C(O)CC1(Cn2cnnn2)CCCCC1 [CA317] | 3.86 | -1.32 |  |  |  |
| O=C(O)c1cn(CC2CCOC2)nn1 (stereo not drawn) [CA318] | -2.05 | -0.23 |  |  |  |
| O=C(O)c1ccn(-c2ccc(C(F)(F)F)cn2)n1 [CA319] | -2.14 | -1.07 |  |  |  |
| O=C(O)c1sccc1S(=O)(=O)NCc1ccco1 [CA320] | -2.92 | 4.46 |  |  |  |
| O=C(O)c1cnn(Cn2cc(Cl)cn2)c1 [CA321] | -3.47 | 1.28 |  |  |  |
| O=C(O)c1nc(OCC2CC2)ccc1Cl [CA322] | -0.54 | -0.53 |  |  |  |
| CC(C(=O)O)n1ccc(C2CC2)n1 (stereo not drawn) [CA323] | -0.32 | 0.72 |  |  |  |
| Cn1cc(S(=O)(=O)N2CCOCC2)cc1C(=O)O [CA324] | -1.59 | 1.03 |  |  |  |
| Cn1nc(CC(=O)O)cc1C1CC1 [CA325] | -0.57 | 0.73 |  |  |  |
| COc1ccc(C(=O)O)cc1S(=O)(=O)NCCCN1CCOCC1 [CA326] | -1.48 | -1.62 |  |  |  |

| Compound | inhibition at 1.25 µM [1] [%] | inhibition at 1.25 µM [2] [%] | inhibition of mUSP18 by individual CA's and coupling reagents (screened with and without DIC/HOBt) | %inh CA only (mUSP18 %inhibition, carboxylic acid (CA) building block alone) [%] | %inh CA + DIC/HOBT (mUSP18 %inhibition, carboxylic acid (CA) with coupling reagents DIC/HOBT) [%] |
| --- | --- | --- | --- | --- | --- |
| Cc1sc(-n2cnnn2)c(C(=O)O)c1C [CA327] | -5.75 | 4.6 |  |  |  |
| Cc1noc(-c2ccc(C(=O)O)cc2)n1 [CA328] | -3.57 | 6.75 |  |  |  |
| CCOc1oc(-c2ccco2)nc1C(=O)O [CA329] | 14.4 | 1 |  |  |  |
| Cc1ccc(S(=O)(=O)NCCc2ccc(F)cc2)cc1C(=O)O [CA330] | 11.3 | -0.35 |  |  |  |
| Cc1nc(-c2ccco2)ccc1C(=O)O [CA331] | 7.93 | -2.82 |  |  |  |
| O=C(CC1(C(=O)O)CCCC1)N1CCOCC1 [CA332] | 2.56 | -3.79 |  |  |  |
| CN(Cc1ccccc1)C(=O)N1CCC(C(=O)O)CC1 [CA333] | 1.66 | -0.9 |  |  |  |
| O=C(O)C1(NS(=O)(=O)C=Cc2ccccc2)CCCC1 [CA334] | 0.85 | 6.5 |  |  |  |
| O=C(O)C(Cc1ccccc1)N1CCCOC1=O (stereo not drawn) [CA335] | 2.86 | -1.08 |  |  |  |
| O=C(O)c1ccc(N2CCCS2(=O)=O)cc1 [CA336] | 1.69 | -1.03 |  |  |  |
| Cc1ccc(CN2C(=O)CCC2C(=O)O)cc1 (stereo not drawn) [CA337] | -0.24 | -1.16 |  |  |  |
| O=C(O)c1nc(C2CC2)ncc1Br [CA338] | 7.6 | -0.51 |  |  |  |
| CN1C(=O)CCC(C(=O)O)C1c1cccs1 (stereo not drawn) [CA339] | 2.79 | -5.82 |  |  |  |
| COc1ccc(CC(=O)O)cc1S(=O)(=O)N1CCOCC1 [CA340] | 3.33 | -0.36 |  |  |  |
| O=C(O)c1ccc(-c2ccccn2)s1 [CA341] | 0.41 | 3.46 |  |  |  |
| Cc1noc(C)c1S(=O)(=O)N1CCCC1C(=O)O (stereo not drawn) [CA342] | 2.95 | 1.55 |  |  |  |
| Cc1cc(C(=O)N(C)c2ccccc2C(=O)O)sc1C [CA343] | 13.5 | 8.07 |  |  |  |
| O=C(O)c1ccc(N2CCCCCC2)nc1 [CA344] | 0.4 | 47 |  |  |  |
| O=C(O)CC1=NN(c2cccc(Cl)c2)C(=O)C1 [CA345] | 2 | 4.68 |  |  |  |
| Cc1oc(-c2cccs2)nc1C(=O)O [CA346] | 8.25 | 12.6 |  |  |  |
| O=C(O)c1ccnc(C2CC2)n1 [CA347] | -0.62 | 1.21 |  |  |  |
| Cn1ccnc1CN1CCC(C(=O)O)CC1 [CA348] | -0.25 | -2.62 |  |  |  |
| O=C(O)c1cc(C2CC2)no1 [CA349] | -3.22 | 5.85 |  |  |  |
| O=C(O)C1CCN(C(=O)c2ccc(Cl)s2)CC1 [CA350] | -0.76 | 4.42 |  |  |  |
| O=C(O)c1ccc(Oc2cccc(Cl)c2)cn1 [CA351] | 4.42 | 14.8 |  |  |  |
